Here are results for three compounds from US20060079558A1, “R-isomer of 2-{2[N-(2-indanyl)-N-phenylamino]ethyl}piperidine and other dermal anesthetics” (Bridge Pharma. Inc., priority 2004, published 2006).

Entries after “also recorded” stand apart in the source; their conditions may differ.

For data set [1] the following is noted: cited from earlier work.
Data set [2] deals with skin on the back of male or female guinea pigs. Kind of data set: Dermal anesthetic activity, pin-prick method after dermal application. In kind it is in vivo. As to conditions: for onset of dermal anesthetic activity (onset time): comparison of enantiomers and racemate, in words; for dermal anesthetic effects (anesthetic score): score after 30 min application, FIG. 1, 10% solution of base in water/DMSO, maximum = 6. On the procedure: Approximately 18-24 hours before each experiment, the skin on the back of male or female guinea pigs was shaved and depilated with a commercially available hair remover. The anesthetic action of each agent following dermal application was determined using a “pin-prick” method as described by Aberg (Acta Pharmacol Toxicol, 1972, 31: 273-286). Before and at various intervals after treatment, the area of the skin was tested for the presence or absence of a skin twitch in response to six standardized dermal probings with a pointed metal “algesimeter” at a predetermined maximum load of 10 grams. The average number of probings not producing a skin twitch response was designated as the “anesthetic score”. In this test system no response to six stimuli represents a “maximal anesthetic activity”. In the present calculations, the dermal anesthetic activity was calculated from the time of removal of the test article formulation from the skin until skin twitch responses to all but one pinprick were identified. In experiments on the dermal anesthetic activity, a single area of skin 1 inch square was marked off on the middle of the back of each animal. This area was covered by a 1 inch square, 16 layer thick gauze pad onto which was deposited 0.45 ml of a 10% solution of the test agent dissolved in a mixture of water and DMSO. The gauze pad was covered with a 1.5 inch square sheet of Saran Wrap™ which was attached to the surrounding skin with tape. The entire area was then covered by wrapping an elastic bandage around the trunk of the animal. After a predetermined duration of treatment, the coverings were removed and the skin assessed for the presence of anesthesia as described above. Dermal anesthesia tests were performed at ten-minute intervals to measure onset time and duration of dermal anesthetic activity; comparisons were made with reference compounds and vehicle. All test compounds were in the base form and dissolved in DMSO/water when tested for dermal anesthesia.

Data set [3] can be described thus: Comparison studies of dermal toxicity. The data set is classed as in vivo. To be noted: in words.

As for `c1ccc(N(CCC2CCCCN2)C2Cc3ccccc3C2)cc1` (racemic) [RS-LAC-34, 2-{2-[N-(2-indanyl)-N-phenylamino]ethyl}piperidine], the local anesthetic activity result in data set [1] (racemate, U.S. Pat. No. 6,413,987) is on record as “active local anesthetic compound”. Also, the tissue toxicity result in data set [1] (racemic mixture, as described in U.S. Pat. No. 6,413,987) was “little, if any, tissue toxicity”.
Consider `c1ccc(N(CC[C@H]2CCCCN2)C2Cc3ccccc3C2)cc1` [R-LAC-34, R-2-{2-[N-(2-indanyl)-N-phenylamino]ethyl}piperidine], for which, in data set [2], the “onset of dermal anesthetic activity (onset time)” value is “shorter onset of action than both the racemate and the S-isomer; also recorded: significantly shorter; also recorded: shorter onset time than the racemic mixture or the S-isomer”; the “dermal anesthetic effects (anesthetic score)” value turned out to be 3.5. For the same compound, the dermal toxicity entry in data set [3] was “low dermal toxicity”.
`c1ccc(N(CCC2CCCCN2)C2Cc3ccccc3C2)cc1` (stereo not shown) [S-LAC-34, reference compound]: in data set [2], the “onset of dermal anesthetic activity (onset time)” value was “longer onset of action” and the “dermal anesthetic effects (anesthetic score)” value was found to be 2.6.
